Data: ChEMBL document CHEMBL6182910, “Design, Synthesis, and Biological Evaluation of 4-(Difluoromethyl)-1H-imidazole-5-carboxylic Acids/4-(3-Cyanophenoxy)pyrimidine-5-carboxylic Acids as P2Y1 Receptor Antagonists for Ischemic Stroke Treatment” (J Med Chem, 2025)
Activity calls are given as the source filed them. The rule behind the calls is not given here.

How the values were obtained:
Plasma = test: Anti-platelet aggregation in platelet-rich plasma of male Japanese white rabbit assessed as inhibition of ADP-induced platelet aggregation preincubated for 15 mins followed by ADP addition measured up to 10 mins by Born's turbidometric method; type: functional, cell-free; conditions: Oryctolagus cuniculus
HT-22 = test: Neuroprotective activity against H2O2-induced oxidative stress in mouse HT-22 cells assessed as cell viability at 10 uM preincubated for 2 hrs followed by H2O2 addition measured after 24 hrs by MTT assay (reference value: 55 +/- 4.6 %); type: functional; conditions: for viability at 10 µM: time 26 hrs, read-out: Activity; for Activity: time 26.0 hrs

N#Cc1ccc(-c2ncc(C(=O)O)c(Oc3cccc(C#N)c3)n2)cc1
IC50 (Plasma): 4.36 µM
viability at 10 µM (HT-22): 98.9%

N#Cc1cccc(-c2nc(C(F)F)c(C(=O)O)n2OCc2cccnc2)c1
IC50 (Plasma): > 10 µM
Activity (HT-22): inactive

CC(=O)Nc1cccc(Oc2nc(-c3cccc(C#N)c3)ncc2C(=O)O)c1
IC50 (Plasma): 7.99 µM
viability at 10 µM (HT-22): 88.2%

CCc1nc(-c2cccc(C#N)c2)n(OCc2ccc(C#N)cc2)c1C(=O)O
IC50 (Plasma): 4.09 µM
viability at 10 µM (HT-22): 70.6%

N#Cc1ccc(COn2c(-c3cccc(C#N)c3)nc(-c3cscn3)c2C(=O)O)cc1
IC50 (Plasma): > 10 µM
Activity (HT-22): inactive

N#Cc1cccc(-c2ncc(C(=O)O)c(Oc3ccn[nH]3)n2)c1
IC50 (Plasma): > 10 µM
Activity (HT-22): inactive

N#Cc1ccc(COn2c(-c3cccc(C#N)c3)nc(-c3ccncc3)c2C(=O)O)cc1
IC50 (Plasma): > 10 µM
Activity (HT-22): inactive

N#Cc1ccc(COn2c(-c3cccc(C#N)c3)nc(C3CC3(F)F)c2C(=O)O)cc1 (configuration not stated)
IC50 (Plasma): 2.88 µM
viability at 10 µM (HT-22): 60.1%

CCN(CC)c1nc(COn2c(-c3cccc(C#N)c3)nc(C(F)F)c2C(=O)O)cs1
IC50 (Plasma): 2.71 µM
Activity (HT-22): inactive

N#Cc1ccc(Oc2nc(-c3ccc(C#N)cc3)ncc2C(=O)O)cc1
IC50 (Plasma): 4.62 µM
viability at 10 µM (HT-22): 91.3%

N#Cc1ccc(-c2ncc(C(=O)O)c(Oc3ccccc3C#N)n2)cc1
IC50 (Plasma): 5.68 µM
viability at 10 µM (HT-22): 96.2%

N#Cc1ccc(COn2c(-c3cccc(C#N)c3)nc(-c3ccccn3)c2C(=O)O)cc1
IC50 (Plasma): 9.2 µM
Activity (HT-22): inactive

N#Cc1ccc(COn2c(-c3cccc(C#N)c3)nc(C3CCC3)c2C(=O)O)cc1
IC50 (Plasma): 1.43 µM
Activity (HT-22): inactive

N#Cc1ccc(COn2c(-c3cccc(C#N)c3)nc(-c3ccsc3)c2C(=O)O)cc1
IC50 (Plasma): 1.39 µM
Activity (HT-22): inactive

N#Cc1ccc(COn2c(-c3cccc(C#N)c3)nc(C3CCCC3)c2C(=O)O)cc1
IC50 (Plasma): 2.53 µM
Activity (HT-22): inactive

N#Cc1ccc(Oc2nc(-c3cccc(C#N)c3)ncc2C(=O)O)cc1
IC50 (Plasma): 4.82 µM
Activity (HT-22): inactive

N#Cc1ccc(COn2c(-c3cccc(C#N)c3)nc(C(F)F)c2C(=O)O)cc1
IC50 (Plasma): 0.98 µM
viability at 10 µM (HT-22): 77.4%

N#Cc1ccc(COn2c(-c3cccc(C#N)c3)nc(-c3ccoc3)c2C(=O)O)cc1
IC50 (Plasma): 7.61 µM
Activity (HT-22): inactive

N#Cc1ccc(-c2ncc(C(=O)O)c(Nc3ccccc3C#N)n2)cc1
IC50 (Plasma): 9.74 µM
viability at 10 µM (HT-22): 97.8%

N#Cc1ccc(COn2c(-c3cccc(C#N)c3)nc(-c3cccnc3)c2C(=O)O)cc1
IC50 (Plasma): > 10 µM
Activity (HT-22): inactive

N#Cc1ccc(COn2c(-c3cccc(C#N)c3)nc(-c3cnccn3)c2C(=O)O)cc1
IC50 (Plasma): 4.11 µM
Activity (HT-22): inactive

N#Cc1ccc(COn2c(-c3cccc(C#N)c3)nc(C3CC3)c2C(=O)O)cc1
IC50 (Plasma): 2.51 µM
Activity (HT-22): inactive

N#Cc1ccc(COn2c(-c3cccc(C#N)c3)nc(C3CC(F)(F)C3)c2C(=O)O)cc1
IC50 (Plasma): 3.11 µM
Activity (HT-22): inactive

N#Cc1ccc(-c2ncc(C(=O)O)c(OCc3cccc(C#N)c3)n2)cc1
IC50 (Plasma): 3.01 µM
viability at 10 µM (HT-22): 81.1%

N#Cc1cccc(-c2nc(C(F)F)c(C(=O)O)n2OCc2cscn2)c1
IC50 (Plasma): 1.98 µM
viability at 10 µM (HT-22): 86.8%

N#Cc1cccc(-c2nc(C(F)F)c(C(=O)O)n2OCc2nccs2)c1
IC50 (Plasma): 2.79 µM
Activity (HT-22): inactive

N#Cc1ccc(-c2ncc(C(=O)O)c(OCc3ccccc3C#N)n2)cc1
IC50 (Plasma): > 10 µM
Activity (HT-22): inactive

N#Cc1ccc(COc2nc(-c3ccc(C#N)cc3)ncc2C(=O)O)cc1
IC50 (Plasma): > 10 µM
viability at 10 µM (HT-22): 88.2%

N#Cc1ccc(COn2c(-c3cccc(C#N)c3)nc(-c3cccs3)c2C(=O)O)cc1
IC50 (Plasma): > 10 µM
Activity (HT-22): inactive

N#Cc1cccc(-c2ncc(C(=O)O)c(Nc3ccccc3C#N)n2)c1
IC50 (Plasma): > 10 µM
viability at 10 µM (HT-22): 81%

N#Cc1cccc(-c2ncc(C(=O)O)c(Nc3cccnc3)n2)c1
IC50 (Plasma): > 10 µM
Activity (HT-22): inactive

N#Cc1ccc(COn2c(-c3cccc(C#N)c3)nc(-c3nccs3)c2C(=O)O)cc1
IC50 (Plasma): 4.52 µM
Activity (HT-22): inactive

N#Cc1cccc(-c2nc(C(F)F)c(C(=O)O)n2OCc2cnco2)c1
IC50 (Plasma): 2.18 µM
Activity (HT-22): inactive

[2H]C([2H])([2H])c1nc(-c2cccc(C#N)c2)n(OCc2ccc(C#N)cc2)c1C(=O)O
IC50 (Plasma): 3.43 µM
viability at 10 µM (HT-22): 73.1%

N#Cc1cccc(-c2ncc(C(=O)O)c(OCc3ccccc3C#N)n2)c1
IC50 (Plasma): > 10 µM
viability at 10 µM (HT-22): 95.8%

CC(C)Cc1nc(-c2cccc(C#N)c2)n(OCc2ccc(C#N)cc2)c1C(=O)O
IC50 (Plasma): 2.08 µM
viability at 10 µM (HT-22): 76.1%

N#Cc1ccc(COn2c(-c3cccc(C#N)c3)nc(C(F)(F)F)c2C(=O)O)cc1
IC50 (Plasma): 1.8 µM
viability at 10 µM (HT-22): 75.6%

CC1(c2nc(-c3cccc(C#N)c3)n(OCc3ccc(C#N)cc3)c2C(=O)O)CC1
IC50 (Plasma): 2.41 µM
viability at 10 µM (HT-22): 88.1%

N#Cc1ccc(COn2c(-c3cccc(C#N)c3)nc(-c3ccccc3)c2C(=O)O)cc1
IC50 (Plasma): 3.33 µM
Activity (HT-22): inactive

N#Cc1cccc(COc2nc(-c3cccc(C#N)c3)ncc2C(=O)O)c1
IC50 (Plasma): 2.67 µM
viability at 10 µM (HT-22): 80.7%

CC1(c2nc(-c3cccc(C#N)c3)n(OCc3ccc(C#N)cc3)c2C(=O)O)CCC1
IC50 (Plasma): 2.99 µM
viability at 10 µM (HT-22): 72.4%

CS(=O)(=O)Nc1cccc(Oc2nc(-c3cccc(C#N)c3)ncc2C(=O)O)c1
IC50 (Plasma): 8.08 µM
viability at 10 µM (HT-22): 79.1%

N#Cc1ccc(COn2c(-c3cccc(C#N)c3)nc(-c3ccco3)c2C(=O)O)cc1
IC50 (Plasma): > 10 µM
viability at 10 µM (HT-22): 77.1%

N#Cc1cccc(-c2nc(C(F)F)c(C(=O)O)n2OCc2ccncc2)c1
IC50 (Plasma): 5.34 µM
Activity (HT-22): inactive

N#Cc1ccc(Nc2nc(-c3cccc(C#N)c3)ncc2C(=O)O)cc1
IC50 (Plasma): > 10 µM
viability at 10 µM (HT-22): 84.9%

N#Cc1cccc(-c2ncc(C(=O)O)c(Oc3ccccc3C#N)n2)c1
IC50 (Plasma): 3.37 µM
Activity (HT-22): inactive

N#Cc1ccc(COn2c(-c3cccc(C#N)c3)nc(C3CCCCC3)c2C(=O)O)cc1
IC50 (Plasma): 2.61 µM
Activity (HT-22): inactive

N#Cc1cccc(-c2nc(C(F)F)c(C(=O)O)n2OCc2csc(N3CCOCC3)n2)c1
IC50 (Plasma): 4.7 µM
Activity (HT-22): inactive

N#Cc1ccc(COn2c(-c3cccc(C#N)c3)nc(-c3cncs3)c2C(=O)O)cc1
IC50 (Plasma): 2.63 µM
Activity (HT-22): inactive

N#Cc1ccc(Nc2nc(-c3ccc(C#N)cc3)ncc2C(=O)O)cc1
IC50 (Plasma): 9.99 µM
viability at 10 µM (HT-22): 91.1%

Cc1sc(N2CCOCC2)nc1COn1c(-c2cccc(C#N)c2)nc(C(F)F)c1C(=O)O
IC50 (Plasma): 1.36 µM
viability at 10 µM (HT-22): 64.6%

N#Cc1ccc(-c2ncc(C(=O)O)c(Nc3cccc(C#N)c3)n2)cc1
IC50 (Plasma): > 10 µM
viability at 10 µM (HT-22): 97.2%

N#Cc1cccc(-c2nc(C(F)F)c(C(=O)O)n2OCc2cncs2)c1
IC50 (Plasma): 3.77 µM
viability at 10 µM (HT-22): 64.9%

N#Cc1ccc(COc2nc(-c3cccc(C#N)c3)ncc2C(=O)O)cc1
IC50 (Plasma): 3.08 µM
Activity (HT-22): inactive

N#Cc1cccc(Nc2nc(-c3cccc(C#N)c3)ncc2C(=O)O)c1
IC50 (Plasma): 7.79 µM
Activity (HT-22): inactive

N#Cc1cccc(-c2ncc(C(=O)O)c(Oc3cccnc3)n2)c1
IC50 (Plasma): > 10 µM
viability at 10 µM (HT-22): 87.6%
